Results taken from paper PMC8948829, “The Escherichia coli Amino Acid Uptake Protein CycA: Regulation of Its Synthesis and Practical Application in L-Isoleucine Production” (Microorganisms, 2022).

Target: T1, CycA (Escherichia coli, UniProt P0AAE0)
T1 construct: full-length native 470 aa inner-membrane permease, chromosomal cycA overexpressed from PL promoter (strain M1, MG1655 cat-PL-cycA), whole cells
T1 sequence (P0AAE0 1-470): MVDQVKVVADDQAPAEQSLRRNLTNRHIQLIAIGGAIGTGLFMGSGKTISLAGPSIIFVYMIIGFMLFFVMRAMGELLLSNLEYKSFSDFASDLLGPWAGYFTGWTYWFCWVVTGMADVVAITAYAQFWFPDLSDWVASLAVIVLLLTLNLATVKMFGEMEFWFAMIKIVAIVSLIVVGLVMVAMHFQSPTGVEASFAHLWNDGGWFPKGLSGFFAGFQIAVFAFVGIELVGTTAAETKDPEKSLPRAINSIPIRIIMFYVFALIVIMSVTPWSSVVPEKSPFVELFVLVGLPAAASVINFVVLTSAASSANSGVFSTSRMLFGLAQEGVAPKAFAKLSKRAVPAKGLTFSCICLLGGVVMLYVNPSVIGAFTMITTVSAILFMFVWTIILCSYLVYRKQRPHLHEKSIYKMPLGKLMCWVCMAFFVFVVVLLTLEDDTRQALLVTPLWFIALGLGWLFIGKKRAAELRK
Assay: amino acid uptake (extracellular depletion), cycA-overexpressing versus wild-type cells
Type: cell-based
Conditions: 50 mM, N-free M9 medium, 37 °C, 6 h; other native importers intact

Compound | uptake rate
CC[C@H](N)C(=O)O [AABA] | the uptake rate was higher in the case of the M1 strain, especially for Ala and AABA
C[C@H](N)C(=O)O [Ala] | the uptake rate was higher in the case of the M1 strain, especially for Ala and AABA
